This passage reports percent of control binding results from paper PMC7026418, “The kinase polypharmacology landscape of clinical PARP inhibitors” (Scientific Reports, 2020).

Where two headings read alike, the source gives them in different places.

Targets include CAMK2B (Homo sapiens, UniProt Q13554); ERN1 (Homo sapiens, UniProt O75460); KIT-autoinhibited (Homo sapiens, UniProt P10721); PRKCD (Homo sapiens, UniProt Q05655); STK35 (Homo sapiens, UniProt Q8TDR2); SYK (Homo sapiens, UniProt P43405); WNK4 (Homo sapiens, UniProt Q96J92).
Holding throughout (experiment): biochemical
Common to all, as to set-up: DiscoveRx KINOMEscan active site-directed competition binding; percent of control kinase bound to immobilised ligand

Assay [1] concerns the target T1, ABL1(M351T)-phosphorylated (Homo sapiens, UniProt P00519, M351T).
T1 construct: phosphorylated

Another assay concerns the target T2, ERK1 (Homo sapiens, UniProt P27361).
T2 construct: gene MAPK3

The target of assay [2] is T3, RSK4(Kin.Dom.2-C-terminal) (Homo sapiens, UniProt Q9UK32).
T3 construct: gene RPS6KA6; Kin.Dom.2-C-terminal

In another assay the target is T4, SNARK (Homo sapiens, UniProt Q9H093).
T4 construct: gene NUAK2
T4 sequence (Q9H093 1-628): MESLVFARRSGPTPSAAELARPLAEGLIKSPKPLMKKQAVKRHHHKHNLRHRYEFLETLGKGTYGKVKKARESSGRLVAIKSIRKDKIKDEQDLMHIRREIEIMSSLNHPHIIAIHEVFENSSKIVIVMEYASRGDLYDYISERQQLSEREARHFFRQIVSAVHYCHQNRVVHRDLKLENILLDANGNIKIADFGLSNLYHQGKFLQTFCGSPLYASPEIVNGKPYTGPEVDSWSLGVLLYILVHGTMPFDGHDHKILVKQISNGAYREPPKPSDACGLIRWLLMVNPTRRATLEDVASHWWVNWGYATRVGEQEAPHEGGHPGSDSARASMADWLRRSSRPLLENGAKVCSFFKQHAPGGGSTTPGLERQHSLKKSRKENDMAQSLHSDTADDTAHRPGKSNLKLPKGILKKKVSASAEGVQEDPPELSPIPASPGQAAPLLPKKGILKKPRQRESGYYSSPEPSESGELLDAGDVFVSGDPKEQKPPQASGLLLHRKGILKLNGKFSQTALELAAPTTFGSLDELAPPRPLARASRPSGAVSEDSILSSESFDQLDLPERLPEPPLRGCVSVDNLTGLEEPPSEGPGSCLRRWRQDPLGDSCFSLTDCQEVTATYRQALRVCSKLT

Another assay has as its target T5, YSK1 (Homo sapiens, UniProt O00506).
T5 construct: gene STK25

Setting [3] is: read-out: Niraparib (MK-4827) / %Ctrl @ 10000nM.
Setting [4] is: read-out: Talazoparib (BMN 673) / %Ctrl @ 10000nM.
Setting [5] is: read-out: Rucaparib / %Ctrl @ 10000nM, binding competition, % of control.
Setting [6] is: read-out: Olaparib / %Ctrl @ 10000nM.

Chain of WNK4 (Q96J92 whole entry): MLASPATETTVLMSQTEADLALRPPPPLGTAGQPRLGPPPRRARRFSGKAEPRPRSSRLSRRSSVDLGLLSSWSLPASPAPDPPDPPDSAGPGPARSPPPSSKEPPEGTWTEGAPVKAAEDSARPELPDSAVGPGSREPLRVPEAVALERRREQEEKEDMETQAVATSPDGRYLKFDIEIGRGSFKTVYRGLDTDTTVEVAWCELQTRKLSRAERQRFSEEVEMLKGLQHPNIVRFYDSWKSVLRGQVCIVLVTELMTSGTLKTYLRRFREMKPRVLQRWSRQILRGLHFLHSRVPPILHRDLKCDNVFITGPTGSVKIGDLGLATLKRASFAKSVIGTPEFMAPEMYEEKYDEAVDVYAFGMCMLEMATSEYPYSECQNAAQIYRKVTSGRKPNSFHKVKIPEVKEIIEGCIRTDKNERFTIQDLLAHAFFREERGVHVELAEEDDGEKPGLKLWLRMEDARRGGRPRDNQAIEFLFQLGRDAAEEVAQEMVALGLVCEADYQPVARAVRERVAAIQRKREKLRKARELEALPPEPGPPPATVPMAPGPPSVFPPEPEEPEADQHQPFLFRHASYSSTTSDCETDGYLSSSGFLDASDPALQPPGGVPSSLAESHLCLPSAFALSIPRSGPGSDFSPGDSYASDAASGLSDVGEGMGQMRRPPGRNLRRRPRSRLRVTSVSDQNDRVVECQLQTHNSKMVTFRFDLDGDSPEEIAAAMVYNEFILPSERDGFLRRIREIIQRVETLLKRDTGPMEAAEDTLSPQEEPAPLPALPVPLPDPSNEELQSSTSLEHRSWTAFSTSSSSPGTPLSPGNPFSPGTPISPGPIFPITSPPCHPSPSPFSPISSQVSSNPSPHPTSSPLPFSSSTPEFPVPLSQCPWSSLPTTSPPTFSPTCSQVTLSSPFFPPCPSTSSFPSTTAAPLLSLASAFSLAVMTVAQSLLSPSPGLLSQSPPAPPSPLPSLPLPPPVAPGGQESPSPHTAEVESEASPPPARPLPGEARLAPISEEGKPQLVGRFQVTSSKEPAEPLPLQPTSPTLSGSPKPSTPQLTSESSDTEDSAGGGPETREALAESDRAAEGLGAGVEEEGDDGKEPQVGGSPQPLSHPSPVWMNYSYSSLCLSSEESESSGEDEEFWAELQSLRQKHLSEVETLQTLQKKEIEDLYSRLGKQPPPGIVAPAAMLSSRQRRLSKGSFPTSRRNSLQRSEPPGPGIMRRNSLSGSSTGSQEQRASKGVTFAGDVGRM
Chain of CAMK2B (Q13554 whole entry): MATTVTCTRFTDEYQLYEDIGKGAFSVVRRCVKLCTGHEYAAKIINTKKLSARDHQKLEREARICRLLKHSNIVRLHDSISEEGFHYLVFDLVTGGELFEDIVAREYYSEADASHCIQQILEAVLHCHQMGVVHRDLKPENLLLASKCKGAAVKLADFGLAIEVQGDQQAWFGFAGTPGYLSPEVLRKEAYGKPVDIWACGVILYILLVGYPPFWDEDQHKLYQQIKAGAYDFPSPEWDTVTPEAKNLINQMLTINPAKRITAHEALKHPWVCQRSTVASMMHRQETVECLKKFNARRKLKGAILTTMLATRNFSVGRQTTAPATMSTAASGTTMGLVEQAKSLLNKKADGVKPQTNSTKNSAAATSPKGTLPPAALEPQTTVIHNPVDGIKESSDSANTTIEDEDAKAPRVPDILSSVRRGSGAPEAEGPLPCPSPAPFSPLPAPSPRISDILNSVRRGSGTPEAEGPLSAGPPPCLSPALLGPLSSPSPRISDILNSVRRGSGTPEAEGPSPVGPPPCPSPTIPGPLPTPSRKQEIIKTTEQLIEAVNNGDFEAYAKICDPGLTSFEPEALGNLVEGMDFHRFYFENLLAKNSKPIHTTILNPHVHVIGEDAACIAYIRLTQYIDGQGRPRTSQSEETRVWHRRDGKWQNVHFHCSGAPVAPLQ
Chain of KIT-autoinhibited (P10721 whole entry): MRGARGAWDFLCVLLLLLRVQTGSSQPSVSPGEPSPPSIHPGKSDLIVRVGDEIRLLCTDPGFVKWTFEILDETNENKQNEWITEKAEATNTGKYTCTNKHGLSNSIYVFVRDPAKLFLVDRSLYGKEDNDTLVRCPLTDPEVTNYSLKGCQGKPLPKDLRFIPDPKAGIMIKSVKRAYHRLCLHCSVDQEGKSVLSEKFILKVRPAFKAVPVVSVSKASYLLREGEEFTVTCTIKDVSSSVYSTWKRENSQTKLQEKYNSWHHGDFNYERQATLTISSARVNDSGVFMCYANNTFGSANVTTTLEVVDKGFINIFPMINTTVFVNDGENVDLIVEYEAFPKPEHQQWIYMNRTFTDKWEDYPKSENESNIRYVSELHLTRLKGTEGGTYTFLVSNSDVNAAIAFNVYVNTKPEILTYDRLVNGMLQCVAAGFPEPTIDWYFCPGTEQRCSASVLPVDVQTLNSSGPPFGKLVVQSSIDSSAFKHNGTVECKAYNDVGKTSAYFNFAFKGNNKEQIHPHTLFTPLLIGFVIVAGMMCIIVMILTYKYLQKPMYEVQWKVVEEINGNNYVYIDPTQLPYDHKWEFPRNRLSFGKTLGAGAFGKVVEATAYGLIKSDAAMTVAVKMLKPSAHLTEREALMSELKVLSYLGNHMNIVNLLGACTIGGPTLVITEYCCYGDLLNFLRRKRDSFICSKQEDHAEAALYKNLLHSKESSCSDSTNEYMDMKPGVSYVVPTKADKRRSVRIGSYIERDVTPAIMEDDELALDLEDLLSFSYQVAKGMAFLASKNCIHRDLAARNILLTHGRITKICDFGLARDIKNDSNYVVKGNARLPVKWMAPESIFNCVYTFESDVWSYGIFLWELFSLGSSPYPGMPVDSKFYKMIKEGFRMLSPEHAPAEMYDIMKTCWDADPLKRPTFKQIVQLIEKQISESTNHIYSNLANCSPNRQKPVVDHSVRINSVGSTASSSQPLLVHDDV
T2 sequence (P27361 whole entry): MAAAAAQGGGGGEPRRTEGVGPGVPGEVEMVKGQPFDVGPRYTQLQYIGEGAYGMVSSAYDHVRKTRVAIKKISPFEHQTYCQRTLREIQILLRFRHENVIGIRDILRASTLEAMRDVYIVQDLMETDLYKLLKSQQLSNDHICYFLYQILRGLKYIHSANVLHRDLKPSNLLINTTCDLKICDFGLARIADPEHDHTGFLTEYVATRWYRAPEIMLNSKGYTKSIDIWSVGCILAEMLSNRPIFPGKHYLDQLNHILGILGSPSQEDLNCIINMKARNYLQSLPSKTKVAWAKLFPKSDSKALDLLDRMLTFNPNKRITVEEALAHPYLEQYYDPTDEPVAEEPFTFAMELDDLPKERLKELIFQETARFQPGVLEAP
T3 sequence (Q9UK32 whole entry): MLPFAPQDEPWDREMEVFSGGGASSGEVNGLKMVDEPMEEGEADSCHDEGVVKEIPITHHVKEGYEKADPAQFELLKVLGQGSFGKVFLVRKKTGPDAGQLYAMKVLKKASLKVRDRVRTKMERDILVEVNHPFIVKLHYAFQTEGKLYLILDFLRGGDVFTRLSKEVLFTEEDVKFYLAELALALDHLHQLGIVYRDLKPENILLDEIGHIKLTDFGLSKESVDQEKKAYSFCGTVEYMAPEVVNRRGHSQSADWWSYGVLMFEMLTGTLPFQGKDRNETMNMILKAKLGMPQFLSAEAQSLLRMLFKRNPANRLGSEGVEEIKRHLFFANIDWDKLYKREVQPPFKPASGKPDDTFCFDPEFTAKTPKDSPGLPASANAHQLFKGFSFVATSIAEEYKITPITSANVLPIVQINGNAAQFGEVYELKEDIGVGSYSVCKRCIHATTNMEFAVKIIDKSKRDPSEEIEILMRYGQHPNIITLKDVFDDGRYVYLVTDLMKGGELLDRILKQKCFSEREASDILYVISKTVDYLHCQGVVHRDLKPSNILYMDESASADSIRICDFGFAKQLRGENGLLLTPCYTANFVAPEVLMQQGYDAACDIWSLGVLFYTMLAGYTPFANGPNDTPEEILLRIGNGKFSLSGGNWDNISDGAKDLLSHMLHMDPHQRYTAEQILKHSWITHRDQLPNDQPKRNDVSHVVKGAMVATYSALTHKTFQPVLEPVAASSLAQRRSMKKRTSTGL
T5 sequence (O00506 whole entry): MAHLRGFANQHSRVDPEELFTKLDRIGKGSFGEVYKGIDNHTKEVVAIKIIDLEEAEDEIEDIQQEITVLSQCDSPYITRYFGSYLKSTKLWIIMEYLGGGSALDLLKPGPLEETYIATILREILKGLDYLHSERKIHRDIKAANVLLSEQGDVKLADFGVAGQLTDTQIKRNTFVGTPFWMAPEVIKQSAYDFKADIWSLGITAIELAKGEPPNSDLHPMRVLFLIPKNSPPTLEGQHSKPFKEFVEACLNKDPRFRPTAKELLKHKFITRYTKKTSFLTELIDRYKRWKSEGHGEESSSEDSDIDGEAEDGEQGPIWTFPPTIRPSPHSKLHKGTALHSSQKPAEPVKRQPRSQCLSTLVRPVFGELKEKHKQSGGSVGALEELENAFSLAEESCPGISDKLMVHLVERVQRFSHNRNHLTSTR
Chain of STK35 (Q8TDR2 whole entry): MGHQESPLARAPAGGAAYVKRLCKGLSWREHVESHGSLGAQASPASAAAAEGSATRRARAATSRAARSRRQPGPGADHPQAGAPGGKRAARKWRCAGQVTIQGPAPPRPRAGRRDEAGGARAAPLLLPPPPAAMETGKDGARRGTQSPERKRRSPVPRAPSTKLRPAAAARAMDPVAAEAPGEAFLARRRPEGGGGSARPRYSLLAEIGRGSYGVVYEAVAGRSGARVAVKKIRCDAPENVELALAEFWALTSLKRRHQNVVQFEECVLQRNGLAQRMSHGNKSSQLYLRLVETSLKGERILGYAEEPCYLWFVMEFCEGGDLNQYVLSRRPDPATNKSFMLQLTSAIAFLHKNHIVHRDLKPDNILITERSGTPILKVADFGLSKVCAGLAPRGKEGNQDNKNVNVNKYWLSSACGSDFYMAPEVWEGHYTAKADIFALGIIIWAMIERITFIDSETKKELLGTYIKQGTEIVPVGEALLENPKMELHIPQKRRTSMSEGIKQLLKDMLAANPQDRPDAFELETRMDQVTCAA

For the molecule `NC(=O)c1cccc2cn(-c3ccc([C@@H]4CCCNC4)cc3)nc12` [Niraparib], the percent of control binding at 10 µM stood at 100% in assay [1] (setting [3]); 90% on CAMK2B (setting [3]); 98% on ERK1 (setting [3]); 100% at ERN1 (setting [3]); 85% at KIT-autoinhibited (setting [3]); 93% at PRKCD (setting [3]). The percent of control binding at 10 µM in assay [2] (setting [3]) was 100%; at SNARK (setting [3]), 98%; at STK35 (setting [3]) it was 92%; at SYK (setting [3]) it was 82%; on WNK4 (setting [3]) it was 100%; at YSK1 (setting [3]), 99%.
`Cn1ncnc1[C@H]1c2n[nH]c(=O)c3cc(F)cc(c23)N[C@@H]1c1ccc(F)cc1` [Talazoparib]: the percent of control binding at 10 µM in [1] (setting [4]) was found to be 98%; on CAMK2B (setting [4]) it was 92%; at ERK1 (setting [4]), 87%; at ERN1 (setting [4]), 91%; on KIT-autoinhibited (setting [4]) it was 100%; at PRKCD (setting [4]) it was 86%. For the same molecule, the percent of control binding at 10 µM in assay [2] (setting [4]) was 97%; at SNARK (setting [4]), 100%; at STK35 (setting [4]), 100%; on SYK (setting [4]), 85%; at WNK4 (setting [4]), 100%; on YSK1 (setting [4]), 80%.
`CNCc1ccc(-c2[nH]c3cc(F)cc4c3c2CCNC4=O)cc1` [Rucaparib]: the percent of control binding at 10 µM in assay [1] (setting [5]) was 75%; on CAMK2B (setting [5]), 86%; on ERK1 (setting [5]), 100%; on ERN1 (setting [5]), 75%; at KIT-autoinhibited (setting [5]), 68%; on PRKCD (setting [5]), 83%. The percent of control binding at 10 µM in assay [2] (setting [5]) was determined as 82%; at SNARK (setting [5]), 50%; on STK35 (setting [5]), 92%; on SYK (setting [5]), 100%; on WNK4 (setting [5]), 97%; at YSK1 (setting [5]), 87%.
As for `O=C(c1cc(Cc2n[nH]c(=O)c3ccccc23)ccc1F)N1CCN(C(=O)C2CC2)CC1` [Olaparib], the percent of control binding at 10 µM is 91% in assay [1] (setting [6]); 96% at CAMK2B (setting [6]); 98% at ERK1 (setting [6]); 88% at ERN1 (setting [6]); 93% on KIT-autoinhibited (setting [6]); 95% at PRKCD (setting [6]). Moreover, the percent of control binding at 10 µM in assay [2] (setting [6]) came to 92%; on SNARK (setting [6]), 72%; on STK35 (setting [6]) it was 100%; at SYK (setting [6]), 100%; on WNK4 (setting [6]) it was 100%; on YSK1 (setting [6]), 97%.
